How the values were obtained:
CCRF-CEM = assay: Cytotoxicity against human CEM cells after 72 hrs by MTT assay; format: functional, cell-based
K562 = assay: Cytotoxicity against human K562 cells after 72 hrs by MTT assay; format: functional, cell-based; settings: K562, 72 h
HT-29 [1] = assay: Cytotoxicity against human HT-29 cells after 72 hrs by MTT assay; format: functional, cell-based; settings: HT-29, 72 h
HCT-116 [2] = assay: Cell cycle arrest in human HCT116 cells assessed as increase in accumulation at G2/M phase after 24 hrs by FACS flow cytometry; format: functional, cell-based
ZR-75-30 = assay: Cytotoxicity against human ZR75-30 cells after 72 hrs by MTT assay; format: functional, cell-based; settings: ZR-75-30, 72 h
Tubulin = Tubulin (Sus scrofa, UniProt P02554+P02550); assay: Inhibition of porcine brain tubulin assembly measured every 1 min for 60 mins by turbidimetric analysis
HCT-116 [3] = assay: Cell cycle arrest in human HCT116 cells assessed as decrease in accumulation at G1 phase after 24 hrs by FACS flow cytometry; format: functional, cell-based
HCT-116 [4] = assay: Cell cycle arrest in human HCT116 cells assessed as decrease in accumulation at S phase after 24 hrs by FACS flow cytometry; format: functional, cell-based
HCT-116 [5] = assay: Cell cycle arrest in human HCT116 cells assessed as accumulation at G2/M phase at 0.2 uM after 24 hrs by FACS flow cytometry (reference value: 13 %); format: functional
HCT-116 [6] = assay: Cell cycle arrest in human HCT116 cells assessed as accumulation at G2/M phase at 2 uM after 24 hrs by FACS flow cytometry; format: functional
Mus musculus [7] = assay: Toxicity in nude BALB/c mouse xenografted with human HT-29 cells assessed as mortality at 100 mg/kg, ip qd after 21 days; format: organism-based; design: dose 100 mg/kg, route intraperitoneal; settings: in vivo, 504 h
Mus musculus [8] = assay: Toxicity in nude BALB/c mouse xenografted with human HT-29 cells assessed as mortality at 150 mg/kg, ip qd after 21 days; format: organism-based; design: dose 150 mg/kg, route intraperitoneal; settings: in vivo, 504 h
Mus musculus [9] = assay: Toxicity in nude BALB/c mouse xenografted with human HT-29 cells assessed as mortality at 300 mg/kg, ip qd after 21 days; format: organism-based; design: dose 300 mg/kg, route intraperitoneal; settings: in vivo, 504 h
HT-29 [10] = assay: Antitumor activity against human HT-29 cells xenografted in nude BALB/c mouse assessed as decrease in tumor volume at 100 mg/kg, ip qd measured on day 21 relative to vehicle-treated control; format: functional; settings: route intraperitoneal
HT-29 [11] = assay: Antitumor activity against human HT-29 cells xenografted in nude BALB/c mouse assessed as decrease in tumor volume at 150 mg/kg, ip qd measured on day 21 relative to vehicle-treated control; format: functional; settings: route intraperitoneal
HT-29 [12] = assay: Antitumor activity against human HT-29 cells xenografted in nude BALB/c mouse assessed as decrease in tumor volume at 300 mg/kg, ip qd measured on day 21 relative to vehicle-treated control; format: functional; settings: route intraperitoneal
Mus musculus [13] = assay: Toxicity in nude BALB/c mouse xenografted with human HT-29 cells assessed as body weight change at 100 mg/kg, ip qd after 21 days (reference value: 2.7 g); format: organism-based; design: dose 100 mg/kg, route intraperitoneal; settings: in vivo, 504 h
Mus musculus [14] = assay: Toxicity in nude BALB/c mouse xenografted with human HT-29 cells assessed as body weight change at 150 mg/kg, ip qd after 21 days (reference value: 2.7 g); format: organism-based; design: dose 150 mg/kg, route intraperitoneal; settings: in vivo, 504 h
Mus musculus [15] = assay: Toxicity in nude BALB/c mouse xenografted with human HT-29 cells assessed as body weight change at 300 mg/kg, ip qd after 21 days (reference value: 2.7 g); format: organism-based; design: dose 300 mg/kg, route intraperitoneal; settings: in vivo, 504 h
Mus musculus [16] = assay: Toxicity in nude BALB/c mouse xenografted with human HT-29 cells assessed as effect on WBC count at 100 mg/kg, ip qd after 21 days (reference value: 25.38 +/- 0.22 x 10^3 mm'-3); format: organism-based; design: dose 100 mg/kg, route intraperitoneal; settings: in vivo, 504 h
Mus musculus [17] = assay: Toxicity in nude BALB/c mouse xenografted with human HT-29 cells assessed as effect on WBC count at 150 mg/kg, ip qd after 21 days (reference value: 25.38 +/- 0.22 x 10^3 mm'-3); format: organism-based; design: dose 150 mg/kg, route intraperitoneal; settings: in vivo, 504 h
Mus musculus [18] = assay: Toxicity in nude BALB/c mouse xenografted with human HT-29 cells assessed as effect on WBC count at 300 mg/kg, ip qd after 21 days (reference value: 25.38 +/- 0.22 x 10^3 mm'-3); format: organism-based; design: dose 300 mg/kg, route intraperitoneal; settings: in vivo, 504 h
Mus musculus [19] = assay: Toxicity in nude BALB/c mouse xenografted with human HT-29 cells assessed as effect on lymphocyte count at 100 mg/kg, ip qd after 21 days (reference value: 15.88 +/- 0.41 x 10^3 mm'-3); format: organism-based; design: dose 100 mg/kg, route intraperitoneal; settings: in vivo, 504 h
Mus musculus [20] = assay: Toxicity in nude BALB/c mouse xenografted with human HT-29 cells assessed as effect on lymphocyte count at 150 mg/kg, ip qd after 21 days (reference value: 15.88 +/- 0.41 x 10^3 mm'-3); format: organism-based; design: dose 150 mg/kg, route intraperitoneal; settings: in vivo, 504 h
Mus musculus [21] = assay: Toxicity in nude BALB/c mouse xenografted with human HT-29 cells assessed as effect on lymphocyte count at 300 mg/kg, ip qd after 21 days (reference value: 15.88 +/- 0.41 x 10^3 mm'-3); format: organism-based; design: dose 300 mg/kg, route intraperitoneal; settings: in vivo, 504 h
Mus musculus [22] = assay: Toxicity in nude BALB/c mouse xenografted with human HT-29 cells assessed as effect on platelet count at 100 mg/kg, ip qd after 21 days (reference value: 1509 +/- 34 x 10^3 mm'-3); format: organism-based; design: dose 100 mg/kg, route intraperitoneal; settings: in vivo, 504 h
Mus musculus [23] = assay: Toxicity in nude BALB/c mouse xenografted with human HT-29 cells assessed as effect on platelet count at 150 mg/kg, ip qd after 21 days (reference value: 1509 +/- 34 x 10^3 mm'-3); format: organism-based; design: dose 150 mg/kg, route intraperitoneal; settings: in vivo, 504 h
Mus musculus [24] = assay: Toxicity in nude BALB/c mouse xenografted with human HT-29 cells assessed as effect on platelet count at 300 mg/kg, ip qd after 21 days (reference value: 1509 +/- 34 x 10^3 mm'-3); format: organism-based; design: dose 300 mg/kg, route intraperitoneal; settings: in vivo, 504 h
Mus musculus [25] = assay: Toxicity in nude BALB/c mouse xenografted with human HT-29 cells assessed as effect on ALT level at 100 mg/kg, ip qd after 21 days (reference value: 28 +/- 0.4 IU/L); format: organism-based; design: dose 100 mg/kg, route intraperitoneal; settings: in vivo, 504 h
Mus musculus [26] = assay: Toxicity in nude BALB/c mouse xenografted with human HT-29 cells assessed as effect on ALT level at 150 mg/kg, ip qd after 21 days (reference value: 28 +/- 0.4 IU/L); format: organism-based; design: dose 150 mg/kg, route intraperitoneal; settings: in vivo, 504 h
Mus musculus [27] = assay: Toxicity in nude BALB/c mouse xenografted with human HT-29 cells assessed as effect on ALT level at 300 mg/kg, ip qd after 21 days (reference value: 28 +/- 0.4 IU/L); format: organism-based; design: dose 300 mg/kg, route intraperitoneal; settings: in vivo, 504 h
Mus musculus [28] = assay: Toxicity in nude BALB/c mouse xenografted with human HT-29 cells assessed as effect on ALP level at 100 mg/kg, ip qd after 21 days (reference value: 107.6 +/- 0.8 IU/L); format: organism-based; design: dose 100 mg/kg, route intraperitoneal; settings: in vivo, 504 h
Mus musculus [29] = assay: Toxicity in nude BALB/c mouse xenografted with human HT-29 cells assessed as effect on ALP level at 150 mg/kg, ip qd after 21 days (reference value: 107.6 +/- 0.8 IU/L); format: organism-based; design: dose 150 mg/kg, route intraperitoneal; settings: in vivo, 504 h
Mus musculus [30] = assay: Toxicity in nude BALB/c mouse xenografted with human HT-29 cells assessed as effect on ALP level at 300 mg/kg, ip qd after 21 days (reference value: 107.6 +/- 0.8 IU/L); format: organism-based; design: dose 300 mg/kg, route intraperitoneal; settings: in vivo, 504 h
Mus musculus [31] = assay: Toxicity in nude BALB/c mouse xenografted with human HT-29 cells assessed as change in kidney morphology at 100 to 300 mg/kg, ip qd after 21 days relative to vehicle-treated control; format: organism-based; design: dose 100-300 mg/kg, route intraperitoneal; settings: in vivo, 504 h
Mus musculus [32] = assay: Toxicity in nude BALB/c mouse xenografted with human HT-29 cells assessed as change in liver morphology at 100 to 300 mg/kg, ip qd after 21 days relative to vehicle-treated control; format: organism-based; design: dose 100-300 mg/kg, route intraperitoneal; settings: in vivo, 504 h
Mus musculus [33] = assay: Toxicity in nude BALB/c mouse xenografted with human HT-29 cells assessed as change in spleen morphology at 100 to 300 mg/kg, ip qd after 21 days relative to vehicle-treated control; format: organism-based; design: dose 100-300 mg/kg, route intraperitoneal; settings: in vivo, 504 h
HT-29 [34] = assay: Antitumor activity against human HT-29 cells xenografted in ip dosed nude BALB/c mouse assessed as decrease in tumor volume administered as qd measured on day 21; format: functional, organism-based
Mus musculus [35] = assay: Toxicity in ICR mouse assessed as mortality at 150 to 600 mg/kg, ip administered on day 1; format: organism-based; design: dose 150-600 mg/kg, route intraperitoneal; settings: in vivo
Mus musculus [36] = assay: Toxicity in ICR mouse assessed as body weight loss at 600 mg/kg, ip administered on day 1 measured for 10 days relative to vehicle-treated control; format: organism-based; design: dose 600 mg/kg, route intraperitoneal; settings: in vivo, 240 h
HCT-116 [37] = assay: cells; settings: Homo sapiens, HCT-116, 72 h
MDA-MB-435 = assay: cells; settings: Homo sapiens, MDA-MB-435, 72 h
Description: Cytotoxicity against human MDA-MB-435 cells after 72 hrs by MTT assay

SMILES: COc1ccc2c(c1)CCC(=O)/C2=C/c1cc(OC)c(OC)c(OC)c1
- IC50 (CCRF-CEM): 1 nM
- IC50 (K562): 1 nM
- IC50 (HT-29 [1]): 10 nM
- Activity (HCT-116 [2]): Dose-dependent effect
- IC50 (ZR-75-30): 10 nM
- IC50 (Tubulin): 3930 nM
- Activity (HCT-116 [3]): Dose-dependent effect
- Activity (HCT-116 [4]): Dose-dependent effect
- Activity (HCT-116 [5]): 17%
- Activity (HCT-116 [6]): 74%
- Activity (Mus musculus [7]): Non-toxic
- Activity (Mus musculus [8]): Non-toxic
- Activity (Mus musculus [9]): Non-toxic
- T/C (HT-29 [10]): 52%
- T/C (HT-29 [11]): 45%
- T/C (HT-29 [12]): 34%
- Activity (Mus musculus [13]): 2.3 g
- Activity (Mus musculus [14]): 3 g
- Activity (Mus musculus [15]): 2.6 g
- Activity (Mus musculus [16]): 24.42 ×10³ /mm3
- Activity (Mus musculus [17]): 20.18 ×10³ /mm3
- Activity (Mus musculus [18]): 19.96 ×10³ /mm3
- Activity (Mus musculus [19]): 11.08 ×10³ /mm3
- Activity (Mus musculus [20]): 10.03 ×10³ /mm3
- Activity (Mus musculus [21]): 8.87 ×10³ /mm3
- Activity (Mus musculus [22]): 1440 ×10³ /mm3
- Activity (Mus musculus [23]): 1375 ×10³ /mm3
- Activity (Mus musculus [24]): 1240 ×10³ /mm3
- Activity (Mus musculus [25]): 24 IU/L
- Activity (Mus musculus [26]): 28 IU/L
- Activity (Mus musculus [27]): 26 IU/L
- Activity (Mus musculus [28]): 112 IU/L
- Activity (Mus musculus [29]): 116.3 IU/L
- Activity (Mus musculus [30]): 107.6 IU/L
- Activity (Mus musculus [31]): Non-toxic
- Activity (Mus musculus [32]): Non-toxic
- Activity (Mus musculus [33]): Non-toxic
- Activity (HT-29 [34]): Dose-dependent effect
- Activity (Mus musculus [35]): Non-toxic
- Activity (Mus musculus [36]): Non-toxic
- IC50 (HCT-116 [37]): 100 nM
- IC50 (MDA-MB-435): 1 nM
